Experiments:
CYP2C9 = CYP2C9 (Homo sapiens, UniProt P11712); experiment: CYP2C9 inhibition (fluorescent substrate MFC); type: in vitro ADME; settings: read-out: Cyp IC50 2C9
In short: (§1)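 Test compound titrated 1:1 across ten concentrations; metabolite fluorescence measured after 37 °C incubation of 15 min (CYP1A2), 30 min (CYP2C19, CYP2D6) or 45 min (CYP2C9). IC50 from signal versus concentration.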

CYP2D6 = CYP2D6 (Homo sapiens, UniProt P10635); experiment: CYP2D6 inhibition (fluorescent substrate AMMC); type: in vitro ADME; settings: read-out: Cyp IC50 2D6
Chain of CYP2D6 (P10635 whole entry): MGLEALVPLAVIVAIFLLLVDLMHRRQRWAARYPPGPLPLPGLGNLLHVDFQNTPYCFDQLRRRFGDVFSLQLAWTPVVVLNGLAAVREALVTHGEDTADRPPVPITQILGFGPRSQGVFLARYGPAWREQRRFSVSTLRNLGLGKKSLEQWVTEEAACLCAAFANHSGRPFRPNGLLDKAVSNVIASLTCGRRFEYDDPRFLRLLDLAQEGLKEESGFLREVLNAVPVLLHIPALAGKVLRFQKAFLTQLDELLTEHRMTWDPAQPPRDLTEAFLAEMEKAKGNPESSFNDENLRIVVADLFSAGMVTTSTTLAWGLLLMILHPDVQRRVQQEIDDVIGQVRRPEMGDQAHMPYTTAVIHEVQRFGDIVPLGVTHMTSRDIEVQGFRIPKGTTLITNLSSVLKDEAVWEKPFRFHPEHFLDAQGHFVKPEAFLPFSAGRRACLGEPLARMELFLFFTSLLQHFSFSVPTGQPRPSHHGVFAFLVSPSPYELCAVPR
In short: as §1

CYP1A2 = target: T1, CYP1A2 (Homo sapiens, UniProt P05177); experiment: CYP1A2 inhibition (fluorescent substrate CEC); type: in vitro ADME; settings: read-out: Cyp IC50 1A2
T1 sequence (P05177 1-516): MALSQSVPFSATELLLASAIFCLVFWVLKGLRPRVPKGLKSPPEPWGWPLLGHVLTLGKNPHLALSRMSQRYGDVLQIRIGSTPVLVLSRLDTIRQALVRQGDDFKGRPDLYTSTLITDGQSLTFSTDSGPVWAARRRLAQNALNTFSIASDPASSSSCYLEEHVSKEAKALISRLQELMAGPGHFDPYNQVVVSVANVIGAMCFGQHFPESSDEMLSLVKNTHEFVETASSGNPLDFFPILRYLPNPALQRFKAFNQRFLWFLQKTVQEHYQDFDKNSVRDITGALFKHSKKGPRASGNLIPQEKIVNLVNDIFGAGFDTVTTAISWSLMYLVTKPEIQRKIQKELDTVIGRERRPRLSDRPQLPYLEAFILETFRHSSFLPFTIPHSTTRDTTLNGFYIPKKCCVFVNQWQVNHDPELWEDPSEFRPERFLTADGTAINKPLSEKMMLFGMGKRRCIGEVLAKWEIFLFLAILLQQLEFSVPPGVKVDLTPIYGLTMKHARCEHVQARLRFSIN
In short: as §1

CYP2C19 = CYP2C19 (Homo sapiens, UniProt P33261); experiment: CYP2C19 inhibition (fluorescent substrate CEC); type: in vitro ADME; settings: read-out: Cyp IC50 2C19
Chain of CYP2C19 (P33261 whole entry): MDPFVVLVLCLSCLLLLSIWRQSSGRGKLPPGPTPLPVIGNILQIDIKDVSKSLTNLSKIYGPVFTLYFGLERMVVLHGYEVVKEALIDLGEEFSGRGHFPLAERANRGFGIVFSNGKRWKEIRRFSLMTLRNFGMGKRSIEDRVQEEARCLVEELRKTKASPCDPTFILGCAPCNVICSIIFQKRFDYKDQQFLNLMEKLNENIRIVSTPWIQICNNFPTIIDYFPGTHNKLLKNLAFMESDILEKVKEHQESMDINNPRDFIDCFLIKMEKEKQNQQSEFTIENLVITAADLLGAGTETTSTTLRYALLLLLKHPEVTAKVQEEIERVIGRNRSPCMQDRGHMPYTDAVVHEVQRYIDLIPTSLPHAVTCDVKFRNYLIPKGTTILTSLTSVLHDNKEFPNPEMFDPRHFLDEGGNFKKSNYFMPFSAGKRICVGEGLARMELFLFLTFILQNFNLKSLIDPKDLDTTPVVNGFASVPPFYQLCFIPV
In short: as §1

CYP3A4(BQ) = CYP3A4(BQ) (Homo sapiens, UniProt P08684); experiment: CYP3A4(BQ) inhibition; type: in vitro ADME; settings: CYP3A4, substrate BQ; read-out: Cyp IC50 3A4(BQ)
Chain of CYP3A4(BQ) (P08684 whole entry): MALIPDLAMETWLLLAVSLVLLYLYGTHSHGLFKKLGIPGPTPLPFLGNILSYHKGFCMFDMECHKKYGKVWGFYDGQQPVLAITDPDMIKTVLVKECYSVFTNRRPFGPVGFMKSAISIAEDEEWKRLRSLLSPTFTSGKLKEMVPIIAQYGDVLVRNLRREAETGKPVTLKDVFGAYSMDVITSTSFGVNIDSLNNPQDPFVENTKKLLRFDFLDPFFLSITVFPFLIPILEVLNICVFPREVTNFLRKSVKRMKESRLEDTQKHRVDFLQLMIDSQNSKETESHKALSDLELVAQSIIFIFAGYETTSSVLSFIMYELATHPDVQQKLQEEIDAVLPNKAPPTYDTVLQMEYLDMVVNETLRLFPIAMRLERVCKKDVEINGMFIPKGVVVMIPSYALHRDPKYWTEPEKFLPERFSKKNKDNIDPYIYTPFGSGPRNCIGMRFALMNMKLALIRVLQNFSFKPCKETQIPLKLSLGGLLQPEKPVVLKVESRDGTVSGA
In short: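 After 30 min incubation at 37° C, plates were read on a Tecan Safire 2 at 409 ex/460 em, and IC50 values came from signal plotted against compound concentration. Enzyme and substrate were sourced from BD Biosciences. The cofactor mix held 1.3% NADPH Regeneration system Solution A, 1.04% Solution B, 5% acetonitrile and 0.05% DMSO.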

[1] = Relative solubility by turbidity in aqueous buffers (pH 1.5, 4.5, 6.8, 7.4); type: physicochemical; settings: for turbidity threshold (L, M, H) 1.4: pH 1.5 (SGF); for turbidity threshold (L, M, H) 4.5: pH 4.5 (SIF); for turbidity threshold (L, M, H) 6.8: pH 6.8 (SIF); for turbidity threshold (L, M, H) 7.4: pH 7.4 (HEPES)
In short: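 Reported value: concentration at which optical density at 490, 535 and 650 nm passes 0.01, taken as the mean of the three wavelengths. Buffers were 0.5M NaCl pH 1.5, 0.05M NaH2PO4 pH 4.5 or 6.8, and 10 mM HEPES/150 mM NaCl pH 7.4, each receiving serial 1:1 DMSO dilutions of a 25 mM stock.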

Chain of CYP2C9 (P11712 whole entry): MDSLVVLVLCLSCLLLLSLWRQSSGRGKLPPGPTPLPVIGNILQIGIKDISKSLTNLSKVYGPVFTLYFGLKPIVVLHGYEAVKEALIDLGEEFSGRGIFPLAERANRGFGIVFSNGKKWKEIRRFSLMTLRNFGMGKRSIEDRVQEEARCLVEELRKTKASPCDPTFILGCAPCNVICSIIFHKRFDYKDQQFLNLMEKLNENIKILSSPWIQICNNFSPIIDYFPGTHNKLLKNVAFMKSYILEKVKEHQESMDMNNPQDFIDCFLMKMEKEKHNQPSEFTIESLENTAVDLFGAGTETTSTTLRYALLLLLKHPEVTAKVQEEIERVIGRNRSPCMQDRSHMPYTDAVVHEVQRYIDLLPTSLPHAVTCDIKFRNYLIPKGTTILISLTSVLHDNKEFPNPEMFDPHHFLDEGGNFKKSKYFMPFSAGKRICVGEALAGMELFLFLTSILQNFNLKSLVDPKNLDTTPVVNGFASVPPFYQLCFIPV

SMILES	IC50 (CYP2C9) [µM]	IC50 (CYP2D6) [µM]	IC50 (CYP1A2) [µM]	IC50 (CYP2C19) [µM]	IC50 (CYP3A4(BQ)) [µM]	turbidity threshold (L, M, H) 1.4 [1]	turbidity threshold (L, M, H) 4.5 [1]	turbidity threshold (L, M, H) 6.8 [1]	turbidity threshold (L, M, H) 7.4 [1]
Cc1cnc2[nH]cc(Cc3ccc(NC4CCCCC4)nc3F)c2c1 [Compound P-3008, cyclohexyl-[6-fluoro-5-(5-methyl-1H-pyrrolo[2,3-b]pyridin-3-ylmethyl)-pyridin-2-yl]-amine]	5 to 10	> 10	> 10	< 5	–	–	–	–	–
Fc1nc(Nc2ccc(C3CC3)nc2)ccc1Cc1c[nH]c2ncnc(C3CC3)c12 [Compound P-4041, (6-Cyclopropyl-pyridin-3-yl)-[5-(4-cyclopropyl-7H-pyrrolo[2,3-d]pyrimidin-5-ylmethyl)-6-fluoro-pyridin-2-yl]-amine]	5 to 10	> 10	5 to 10	< 5	5 to 10	–	–	–	–
CC(C)=CNc1ncnc2[nH]cc(C(=O)c3ccc(NC4CCC(F)(F)CC4)nc3Cl)c12 [Compound P-4047, [2-chloro-6-[(4,4-difluorocyclohexyl)amino]-3-pyridyl]-[4-(2-methylprop-1-enylamino)-7H-pyrrolo[2,3-d]pyrimidin-5-yl]methanone]	> 10	> 10	> 10	> 10	> 10	–	–	–	–
Nc1ncnc2[nH]cc(C(=O)c3ccc(Nc4ccc(C5CC5)nc4)nc3F)c12 [Compound P-4048, (4-amino-7H-pyrrolo[2,3-d]pyrimidin-5-yl)-[6-[(6-cyclopropyl-3-pyridyl)amino]-2-fluoro-3-pyridyl]methanone]	> 10	> 10	> 10	> 10	> 10	H (high solubility if the threshold concentration is >250 μm)	M (moderate solubility if the threshold concentration is 31.3 μM to 250 μM)	M (moderate solubility if the threshold concentration is 31.3 μM to 250 μM)	M (moderate solubility if the threshold concentration is 31.3 μM to 250 μM)
CC(C)(O)CNc1ncnc2[nH]cc(C(=O)c3ccc(Nc4ccc(C5CC5)nc4)nc3F)c12 [Compound P-4049, [6-[(6-cyclopropyl-3-pyridyl)amino]-2-fluoro-3-pyridyl]-[4-[(2-hydroxy-2-methyl-propyl)amino]-7H-pyrrolo[2,3-d]pyrimidin-5-yl]methanone]	5 to 10	> 10	> 10	5 to 10	> 10	H (high solubility if the threshold concentration is >250 μm)	L (low solubility if the threshold concentration is <31.3 μM)	L (low solubility if the threshold concentration is <31.3 μM)	L (low solubility if the threshold concentration is <31.3 μM)
CCNc1ncnc2[nH]cc(C(=O)c3ccc(NC4CCC(F)(F)CC4)nc3Cl)c12 [Compound P-4050, [2-chloro-6-[(4,4-difluorocyclohexyl)amino]-3-pyridyl]-[4-(ethylamino)-7H-pyrrolo[2,3-d]pyrimidin-5-yl]methanone]	> 10	> 10	> 10	> 10	> 10	H (high solubility if the threshold concentration is >250 μm)	L (low solubility if the threshold concentration is <31.3 μM)	L (low solubility if the threshold concentration is <31.3 μM)	L (low solubility if the threshold concentration is <31.3 μM)
CCNc1ncnc2[nH]cc(C(=O)c3cnc(NC4CCC(F)(F)CC4)c(F)c3)c12 [Compound P-4051, [6-[(4,4-difluorocyclohexyl)amino]-5-fluoro-3-pyridyl]-[4-(ethylamino)-7H-pyrrolo[2,3-d]pyrimidin-5-yl]methanone]	> 10	> 10	> 10	> 10	> 10	H (high solubility if the threshold concentration is >250 μm)	M (moderate solubility if the threshold concentration is 31.3 μM to 250 μM)	M (moderate solubility if the threshold concentration is 31.3 μM to 250 μM)	L (low solubility if the threshold concentration is <31.3 μM)
O=C(c1cnc(NC2CCC(F)(F)CC2)c(F)c1)c1c[nH]c2ncnc(NCC(F)(F)F)c12 [Compound P-4052, [6-[(4,4-difluorocyclohexyl)amino]-5-fluoro-3-pyridyl]-[4-(2,2,2-trifluoroethylamino)-7H-pyrrolo[2,3-d]pyrimidin-5-yl]methanone]	> 10	> 10	> 10	> 10	> 10	L (low solubility if the threshold concentration is <31.3 μM)	L (low solubility if the threshold concentration is <31.3 μM)	L (low solubility if the threshold concentration is <31.3 μM)	L (low solubility if the threshold concentration is <31.3 μM)
O=C(c1cnc(NC2CCC(F)(F)CC2)c(F)c1)c1c[nH]c2ncnc(NC3CC3)c12 [Compound P-4053, [4-(cyclopropylamino)-7H-pyrrolo[2,3-d]pyrimidin-5-yl]-[6-[(4,4-difluorocyclohexyl)amino]-5-fluoro-3-pyridyl]methanone]	> 10	> 10	> 10	> 10	> 10	H (high solubility if the threshold concentration is >250 μm)	M (moderate solubility if the threshold concentration is 31.3 μM to 250 μM)	M (moderate solubility if the threshold concentration is 31.3 μM to 250 μM)	M (moderate solubility if the threshold concentration is 31.3 μM to 250 μM)
CNc1ncnc2[nH]cc(C(=O)c3cnc(NC4CCC(F)(F)CC4)c(F)c3)c12 [Compound P-4054, [6-[(4,4-difluorocyclohexyl)amino]-5-fluoro-3-pyridyl]-[4-(methylamino)-7H-pyrrolo[2,3-d]pyrimidin-5-yl]methanone]	> 10	> 10	> 10	> 10	> 10	H (high solubility if the threshold concentration is >250 μm)	M (moderate solubility if the threshold concentration is 31.3 μM to 250 μM)	M (moderate solubility if the threshold concentration is 31.3 μM to 250 μM)	M (moderate solubility if the threshold concentration is 31.3 μM to 250 μM)

Source: US8901118B2, “Compounds and methods for kinase modulation, and indications therefor” (Plexxikon Inc., priority 2010, dated 2014)
